Literature values, collected in US20230414599A1, “NICOTINAMIDE, NICOTINAMIDE PRECURSORS AND NICOTINAMIDE METABOLITES AND COMPOSITIONS THEREOF FOR REDUCING THE TIME TO RESOLUTION OF SYMPTOMS IN PATIENTS WITH COVID-19 AND OTHER VIRAL INFECTIONS” (CONARIS RESEARCH INSTITUTE AG, priority 2020, published 2023).

Tested on: COVID-19
Details: patients with mild or moderate COVID-19; interim analysis; cited from earlier work

In the case of `CC(C)C(=O)OC[C@H]1O[C@@H](n2ccc(NO)nc2=O)[C@H](O)[C@@H]1O` [molnupiravir], the “Reduction of the risk of hospitalization or death compared to placebo” value is listed as “approximately 50%”.
